Measured values published in patent US20250108029A1, “INHIBITORS OF THE INTERACTION BETWEEN THE ROCK AND PDK1 PROTEIN KINASES” (Université Paris Cite, priority 2021, published 2025).
Read-outs that look alike come from different tables or passages of the source.

Columns and labels:
monocytes [1] = test: Intracellular TNFα production in isolated monocytes by flow cytometry; type: cell-based, human
[2] = system: NF-κB transcription factor; test: NF-κB activity in THP1-Dual reporter cells fed supernatants of R848-stimulated PBMCs; conditions: for IC50: Homo sapiens, THP1-Dual, read-out: IC50 NF-κB; for secretion of inflammatory cytokines on PBMCs: preventively, 1 h before stimulation by TLR7/8
Experimental: The in vitro experiments were carried out using human peripheral blood mononuclear cells (PBMCs) isolated by density with centrifugation using a medium for separating white blood cells from peripheral blood ([sequence] Technologies). […] The peripheral blood mononuclear cells (PBMCs) were cultured in RPMI 1640 (Sigma) containing 10% inactivated fetal calf serum and 1 mM glutamine (Hyclone, Logan, UT).
The PBMCs were cultured at 2×10^6 cells/ml. The cells were then incubated with the compounds of the invention at the indicated concentrations for 1 h before stimulation. The PBMCs were then stimulated for 24 h with the TLR7/8 agonist Resiquimod (R848) at 5 μg/ml. The supernatants were collected for cytokine detection.
The activity of the NF-κB transcription Factor and the induction of the interferon (IFN) pathway via interferon regulatory factors (IRFs) were measured using the THP1-Dual reporter cell line from InvivoGen. The PBMC culture supernatants were added to the THP1-Dual cultures at a rate of 0.4×10^6 cells/ml for 24 h. The activity of the NF-κB transcription factor was measured with QUANTI-Blue, a SEAP detection agent following the supplier's recommendations. The activity of the IRFs was measured with QUANTI-Luc, a luciferase detection reagent following the supplier's recommendations.

B lymphocytes = test: B lymphocyte activation (CD69) by flow cytometry after TLR9 stimulation; type: cell-based, human; conditions: 20 μM, 1 h before TLR9 agonist CpG-A, 16 h
Experimental: The B lymphocytes were purified by negative selection with the “B Cell Isolation Kit” (Miltenyi).
The B lymphocytes were cultured at 1×10^6/ml. […] They were stimulated for 16 h (flow cytometry) with the TLR9 agonist CpG-A at […]. The cells were recovered for flow cytometry.
After washing, the cells were resuspended in PBS containing 2% of FCS and 2 mM of EDTA and then labeled with an anti-CD69 antibody (clone REA824) from Miltenyi Biotec, used at 1/100° for 30 min at 4° C. The cells were washed twice and then passed into flow cytometry. The data acquisition was carried out on the Canto II flow cytometer using Diva software (BD Biosciences, San Jose, CA). FlowJo software was used to analyze the data.

[3] = system: plasmacytoid dendritic cells (pDCs); type: cell-based, human
[4] = system: peripheral blood mononuclear cells (PBMCs); test: Interferon secretion by PBMCs stimulated with HIV (THP1-Dual reporter); type: cell-based, human; conditions: 20 μM, 1 h before stimulation by the HIV virus, 24 h
Text: (§1) The supernatants were collected for cytokine detection.

IRFs = test: Interferon pathway (IRF) activity in reporter cells fed supernatants of R848-stimulated PBMCs; type: cell-based, human; conditions: for IC50: Homo sapiens, PBMC, read-out: IC50 IFR; for secretion of interferons on PBMCs: preventively, 1 h before stimulation by TLR7/8
Text: as §1

pyruvate kinase (PK) = test: Pyruvate kinase activity assay; type: biochemical
Experimental: Inhibitors (2 μL) are added to 193 μL of a mixture containing PEP, ADP, MgSO4, β-NADH and L-lactic dehydrogenase. After reading at 340 nm, 7 μL of pyruvate kinase are added to the mixture. The samples are read at 340 nm every 1 to 2 min for 20 min.

[5] = system: NF-κB transcription factor; test: NF-κB activation in THP1-Dual cells (SEAP assay); type: cell-based, human; conditions: according to a dose effect
Experimental: The THP1-Dual reporter cell line was cultured at 5×10^5/ml.
The THP1-Dual cells express the secreted embryonic alkaline phosphatase (SEAP) reporter gene under a promoter containing five copies of the NF-κB consensus transcriptional response element. The THP1-Dual cells allow the NF-κB pathway to be studied by monitoring the SEAP activity. The SEAP alkaline phosphatase activity is determined by means of the QUANTI-Blue colorimetric enzyme assay (InvivoGen). The THP1-Dual cells are cultured in a 96-well plate (200 μL/well). After LPS or R848 treatment, for each well, 20 μL of culture medium are added to 180 μL of the QUANTI-Blue solution and incubated at 37° C. for 2 h. Absorbance (measurement at 655 nm with a spectrophotometer (Bio-Rad Model 680 microplate reader) is proportional to SEAP activity.

[6] = system: THP1 human monocytic cell line; test: RT-qPCR of pro-inflammatory gene transcription in THP1-Dual monocytes; type: cell-based; conditions: dose effect; for concentration from which transcription of the genes coding for TNFα and IL-1β is reduced: induced by LPS, 1 hour; for concentration from which transcription of the genes coding for TNFα, IL-6, MCP1 and IL-1β is reduced: induced by R848 5 μg/ml, 16 h
Experimental: The THP1-Dual cell lines were cultured at 1×10^6 cells/ml.
The THP1-Dual cells (InvivoGen) were stimulated for 16 h with the TLR7/8 agonist (R848) at 5 μg/ml or for 1 hour with the TLR4 agonist (LPS) at 100 ng·ml, respectively. The cells were washed in PBS and lysed to prepare the mRNAs for an RT-qPCR analysis.
The total RNAs are extracted from the cells with the E.Z.N.A. kit. Total RNA Kit 1 (Omega Bio-tek) according to the supplier's instructions. The RNA concentration is measured by means of a spectrophotometer (Nanodrop ND-1000). The total RNA is reverse-transcribed into cDNA by means of the PrimeScript RT Master Mix kit (Takara RR036A). The cDNA synthesis is carried out according to the following protocol: 300-500 ng of RNA in 8 μL of water free of RNase, supplemented with 2 μL of the reaction buffer (containing the PrimeScript reverse transcriptase, RNase inhibitors, oligo(dT) primers, random 6mers and the mix of dNTPs). The enzymatic reverse transcription reaction is carried out at 37° C. for 15 min. The enzyme is inactivated by incubating the sample at 85° C. for 15 sec.
The quantitative real-time PCR is carried out according to the following conditions: cDNA diluted to 1/10th is added to the following mixture: 3.8 μL of H2O, […] of sense and antisense primers (10 μM) (Table 3), 5 μL of Absolute qPCR SYBR Green Mix containing Thermo-Start DNA Polymerase, MgCl2, SYBR Green and dNTPs (Eurogentec). The assays are carried out in triplicate in a 384-well plate (Thermo Scientific). DNA amplification by quantitative PCR is carried out in the CFX384 system (Bio-Rad) with the following program: 3 min at 95° C./5 sec at 95° C. and 30 sec at 60° C. repeated 40 cycles/2 min at 72° C. and 30 sec at 95° C. followed by a dissociation step which makes it possible to verify the specificity of the amplification product. The DNA amplification data are analyzed with Bio-Rad CFX Manager software.

IRF transcription factor = test: IRF activation in THP1-Dual cells after cGAMP (luciferase assay); type: cell-based, human; conditions: according to a dose effect; stimulation of the STING interferon pathway by cGAMP, 24 h
Experimental: The THP1-Dual reporter cell line was cultured at 5×10^5/ml. […] The THP1-Dual cells were stimulated for 24 h with the STING pathway agonist, cGAMP. Luciferase assay (luminometry)
The THP1-Dual cells express the Lucia luciferase reporter gene under a promoter containing five IFN response elements. The THP1-Dual cells allow the IRF pathway to be studied by measuring Lucia luciferase activity. Lucia luciferase activity is determined by means of the QUANTI-Luc Gold assay (InvivoGen). The THP1-Dual cells are cultured in a 96-well plate (200 μL/well). After LPS or R848 treatment, for each well, 10 μL of culture medium are added to 50 μL of QUANTI-Luc GOLD solution and the light signal produced is measured by means of a luminometer.

[7] = system: peripheral blood mononuclear cells (PBMCs); test: LegendPlex assay of cytokines in supernatants of stimulated PBMCs; conditions: for secretion of TNFα, IL-1β, IL-6, IL-18, IL-23, IFNγ and MCP1 on PBMCs: stimulation by TLR4 (LPS 100 ng/ml, 24 h); for secretion of TNFα, IL-1β, IL-6, IL-10, IL-12 p70, IL-18, IL-23, IL-33, IFNα2, IFNγ and MCP1 on PBMCs: stimulation by TLR7/8 (R848 5 μg/ml, 24 h)
Experimental: The in vitro experiments were carried out using human peripheral blood mononuclear cells (PBMCs) isolated by density with centrifugation using a medium for separating white blood cells from peripheral blood ([sequence] Technologies). The blood from the healthy donors was obtained at the “Etablissement Frangais du Sang” (French Blood Establishment) (convention #07/CABANEL/106; Paris, France). […] The peripheral blood mononuclear cells (PBMCs) were cultured in RPMI 1640 (Sigma) containing 10% inactivated fetal calf serum and 1 mM glutamine (Hyclone, Logan, UT).
The PBMCs were cultured at 2×10^6 cells/ml. The cells were then incubated with the compounds of formula (V) and (VI) at the indicated concentrations for 1 hour before stimulation. The PBMCs were then stimulated for 24 h with the TLR7/8 agonist Resiquimod—R848 at 5 μg/ml and the TLR4 agonist Lipopolysaccharide—LPS at 100 ng/ml. The supernatants were collected for cytokine detection.
An assay of the cytokines in the supernatants of the cell cultures was carried out using the “LegendPlex Antivirus Human Panel” or “LegendPlex Human Inflammation Panel” (Biolegend, San Diego, USA) according to the manufacturer's instructions.

monocytes [8] = test: TNFα production in monocytes treated with siPDK1 or siCTL and stimulated with R848; type: cell-based, human; conditions: 20 μM, 1 h before R848 1 μg/ml
[9] = system: peripheral blood mononuclear cells (PBMCs); test: Interferon secretion by PBMCs stimulated with influenza virus (THP1-Dual reporter); type: cell-based, human; conditions: 20 μM, 1 h before stimulation by the influenza virus, 24 h
[10] = Condition A: 20 μM, 1 h before stimulation of TLR7/8 (R848 5 μg/ml)
[11] = Condition B: 20 μM, 1 h before stimulation of TLR4 (LPS 100 ng/ml)
[12] = Condition C: 20 μM, 1 h before stimulation of TLR2 (LTA 1 μg/ml)
[13] = Condition B: 20 μM, 1 h before stimulation by the influenza virus
[14] = PBMCs incubated with compound 1 h before R848 5 μg/ml for 24 h, supernatants on reporter cells, QUANTI-Luc
[15] = stimulation of TLR4 by LPS, 24 h
[16] = stimulation of TLR7/8 by R848, 24 h

SMILES	production of TNFα on monocytes (monocytes [1]; [10])	production of TNFα on monocytes (monocytes [1]; [11])	production of TNFα on monocytes (monocytes [1]; [12])	IC50 [2]	secretion of inflammatory cytokines on PBMCs [2]	activation of B lymphocytes (CD69 membrane activation marker) (B lymphocytes)	production of TNFα on plasmacytoid dendritic cells [3, 13]	secretion of interferons by PBMCs [4]	IC50 (IRFs; [14])	secretion of interferons on PBMCs (IRFs)	enzymatic activity of pyruvate kinase (PK) (pyruvate kinase (PK))	activation of the NF-κB transcription factor in THP1-Dual cells [5, 15]	activation of the NF-κB transcription factor in THP1-Dual cells [5, 16]	concentration from which transcription of the genes coding for TNFα and IL-1β is reduced [6]	concentration from which transcription of the genes coding for TNFα, IL-6, MCP1 and IL-1β is reduced [6]	activation of the IRF transcription factor in THP1-Dual cells (IRF transcription factor)	secretion of TNFα, IL-1β, IL-6, IL-18, IL-23, IFNγ and MCP1 on PBMCs [7]	secretion of TNFα, IL-1β, IL-6, IL-10, IL-12 p70, IL-18, IL-23, IL-33, IFNα2, IFNγ and MCP1 on PBMCs [7]	production of TNFα by monocytes treated with control siRNAs (siCTL) (monocytes [8])	secretion of interferons by PBMCs [9]	further results
COc1ccc(NN=C(C#N)C#N)cc1 [Compound of formula (VI), 2-[(4-methoxyphenyl)hydrazinylidene]propanedinitrile]	inhibit	inhibit	inhibit	5 µM	capable of blocking	capable of blocking	inhibit	inhibit	3 µM	capable of blocking	no impact	inhibit	inhibit	≥ 1 µM	≥ 2 µM	inhibit	capable of blocking	capable of blocking	inhibit	inhibit	production of TNFα on plasmacytoid dendritic cells [3]: inhibit; production of TNFα by monocytes treated with siRNAs targeting PDK1 (siPDK1) (monocytes [8]): fail to inhibit
COc1cccc(NN=C(C#N)C#N)c1 [Compound of formula (V), 2-[(3-methoxyphenyl)hydrazinylidene]propanedinitrile]	inhibit	inhibit	inhibit	3.8 µM	capable of blocking	capable of blocking	inhibit	inhibit		capable of blocking	no impact	inhibit	inhibit	≥ 5 µM	≥ 5 µM	inhibit	capable of blocking	capable of blocking	inhibit	inhibit	production of TNFα on plasmacytoid dendritic cells ([3]; Condition A: 20 μM, 1 h before stimulation of TLR7 (R848 5 μg/ml)): inhibit; production of TNFα on plasmacytoid dendritic cells ([3]; Condition C: 20 μM, 1 h before stimulation of TLR9 (CpG-A)): inhibit; IC50 (IRFs): 3 µM; production of TNFα by monocytes treated with siRNAs targeting PDK1 (siPDK1) (monocytes [8]): fail to inhibit
COc1cccc(-n2nc3c(N)cc(-c4ccccc4)nc3c2C(=O)NCc2ccccc2)c1 [Compound of formula (VII), 7-amino-N-benzyl-2-(3-methoxyphenyl)-5-phenyl-2H-pyrazolo[4,3-b]pyridine-3-carboxamide]						capable of blocking			23 µM	capable of blocking											
COC(=O)c1c(NC(=O)C(F)(F)F)c(C#N)nn1-c1cccc(OC)c1 [Compound of formula (IX), methyl 3-cyano-1-(3-methoxyphenyl)-4-(2,2,2-trifluoroacetamido)-1H-pyrazole-5-carboxylate]									0.4 µM	capable of blocking						inhibit				inhibit	
COc1cccc(-n2nc3c(N)cc(-c4ccccc4)nc3c2C(=O)NN)c1 [Compound of formula (VIII), 7-amino-2-(3-methoxyphenyl)-5-phenyl-2H-pyrazolo[4,3-b]pyridine-3-carbohydrazide]						capable of blocking		inhibit	23 µM	capable of blocking						inhibit				inhibit	
